Results published in patent US20110288052A1, “NOVEL COMPOUNDS, PHARMACEUTICAL COMPOSITIONS CONTAINING SAME, AND METHODS OF USE FOR SAME” (priority 2008, published 2011).
Values after ≈ are worked out from the molar mass of the structure shown.

What was measured:
[1] = test system: HCT116 cells; assay: XTT cytotoxicity assay, HCT116 (H); assay type: cell-based; conditions: Homo sapiens, HCT-116
Description: (§1) XTT Cytotoxicity Assay The XTT assay is a non-radioactive alternative for the [^51Cr] release cytotoxicity assay. XTT is a tetrazolium salt that is reduced to a formazan dye only by metabolically active, viable cells. The reduction of XTT is measured spectrophotometrically as OD490-OD650. To measure the cytotoxicity of specific compounds against cancer cells, 9×10^3 MCF-7 human breast cancer cells (shown in the tables as “(M)”), obtained from the American Type Culture Collection are plated per well in 96 well plates in DMEM medium with 10% fetal bovine serum, insulin, penicillin, and streptomycin. Following overnight culture at 37° C. and 5% CO2, the compounds to be tested, dissolved in DMSO, are added to the wells in 1 μl volume at the following concentrations: 80, 40, 20, 10, 5, 2.5, 1.25, and 0.625 μg/ml in triplicate. Additional concentrations are tested if required. 1 μl of DMSO is added to triplicate wells are the vehicle control. C75 is run at 40, 20, […], and 5 μg/ml in triplicate as positive controls. After 72 hours of incubation, cells are incubated for 4 hours with the XTT reagent as per manufacturer's instructions (Cell Proliferation Kit II (XTT) Roche). Plates are read at OD490 and OD650 on a Molecular Devices SpectraMax Plus Spectrophotometer. Three wells containing the XTT reagent without cells serve as the plate blank. XTT data are reported as OD490-OD650. Averages and standard error of the mean are computed using SOFTmax Pro software (Molecular Dynamics). The IC50 for the compounds is defined as the concentration of drug leading to a 50% reduction in OD490-OD650 compared to controls. The OD490-OD650 are computed by the SOFTmax PRO software (Molecular Devices) for each compound concentration. IC50 is calculated by linear regression, plotting the FAS activity as percent of control versus drug concentrations. Linear regression, best-fit line, r^2, and 95% confidence intervals are determined using Prism Version 3.0 (Graph Pad Software). The test was also run against OVCAR3 cells (“OV”), and HCT116 cells (“H”).

[2] = test system: OVCAR3 cells; assay: XTT cytotoxicity assay, OVCAR3 (OV); assay type: cell-based; conditions: Homo sapiens
Description: as §1

[3] = test system: MCF-7 human breast cancer cells (fatty acid oxidation pathway activity); assay: Fatty acid oxidation ([14C]palmitate to acid soluble products); assay type: cell-based; conditions: for FAO SC 150: concentration leading to 150% of control acid soluble products, Neg = threshold not reached; for Emax at 6.25 µg/mL: at 6.25 μg/ml; for Emax at 0.098 µg/mL: at 0.098 μg/ml; for Emax at 1.56 µg/mL: at 1.56 μg/ml
Description: Measurement of Fatty Acid Oxidation and Determination of SC150 of Compounds This assay measures the degradation of [^14C]palmitate into acid soluble products and is a measure of fatty acid oxidation pathway activity in vitro. It is utilized to measure fatty acid oxidation in vitro. MCF-7 human breast cancer cells cultured as above, are plated at 2.5×10^5 cells per well in 24-well plates. Following overnight incubation, the compounds to be tested, solubilized in DMSO, are added at […], 0.39, 1.56, 6.25, 25, and 100 μg/ml in triplicate, with lower concentrations tested if necessary. DMSO is added to triplicate wells for a vehicle control. C75 is run at 5 and 10 μg/ml in triplicate as positive controls. After 1 hour of incubation, medium is removed 100 uM of [^14C] palmitate in cyclodextran and 200 uM carnitine in serum free medium (250 μl volume) is added to each well. After 30 minutes of additional incubation, the reaction is stopped by addition of 2.6N HClO4. Contents of each well are transferred to 1.5 ml Eppendorf tubes and 4N KOH is added. The tubes are incubated for 30 minutes at 60° C. 1 M NaAcetate and 3N H2SO4 is added to each tube and vortexed. The tubes are centrifuged at 1000 rpm for 5 minutes at RT. 250 μl of the supernatant is transferred to a 2 ml eppendorf tube. To each tube is added: 938 μl of chloroform:methanol (1:1), 468 μl chloroform and 281 μl of deionized water. The tubes are vortexed and centrifuged at 1000 rpm for 5 minutes at RT. 750 μl of the upper phase is transferred into a scintillation vial 5 ml of scintillant is added and vials are counted for 1 minute for ^14C. The Beckman Scintillation counter calculates the average cpm values for triplicates. The SC150 for the compounds is defined as the concentration of drug leading to a 150% increase in production of acid soluble products of [^14C] palmitate as compared to untreated controls. This is determined by plotting the average cpm for each inhibitor concentration tested, performing linear regression and computing the best-fit line, r^2 values, and 95% confidence intervals. The average cpm values are computed by the Beckman scintillation counter (Model LS6500) for each compound concentration. Computation of linear regression, best-fit line, r^2, and 95% confidence intervals are calculated using Prism Version 3.0 (Graph Pad Software). If a compound fails to achieve this 150% threshold it is considered negative. The maximum value achieved is also reported (FAO Max).

[4] = Solubility problem noted during the assays; assay type: physicochemical; conditions: for solubility: read-out: Sol Prob (solubility problem at concentration)
[5] = Weight loss screen; assay type: in vivo, Balb/C mice; conditions: 60 mg/kg intraperitoneally
Description: Weight Loss Screen Balb/C mice (Jackson Labs) are utilized for the initial weight loss screening. Animals are housed in temperature and 12 hour day/night cycle rooms and fed mouse chow and water ad lib. Three mice are utilized for each compound tested with vehicle controls in triplicate per experiment. For the experiments, mice are housed separately for each compound tested three mice to a cage. Compounds are diluted in DMSO at 10 mg/ml and mice are injected intraperitoneally with 60 mg/kg in approximately 100 μl of DMSO or with vehicle alone. Mice are observed and weighed daily; average weights and standard errors are computed with Excel (Microsoft). The experiment continues until treated animals reach their pretreatment weights.

[6] = Homo sapiens, MCF7, read-out: FAO Max

CCCCCCCCC1(C)OC(=O)C=C1OCC(=O)Nc1ccc(Cl)cc1 (stereo not shown)
IC50 [1]: 4.8 µg/mL (≈ 12.2 µM)
IC50 ([2]; OVCAR-3): 9.2 µg/mL (≈ 23.4 µM)
Emax at 0.39 µg/mL ([3]; Homo sapiens, MCF7, at 0.39 μg/ml, read-out: FAO Max): 95%
FAO SC 150 [3]: Neg
solubility [4]: 80 µg/mL (≈ 203 µM)

CCCCCCCCC1(C)SC(=O)C=C1OCC(=O)Nc1ccccc1SC (stereo not shown)
IC50 [1]: 31.4 µg/mL (≈ 74.5 µM)
IC50 ([2]; OVCAR-3): 43.8 µg/mL (≈ 104 µM)
Emax at 6.25 µg/mL [3, 6]: 114%
FAO SC 150 [3]: Neg
solubility [4]: 40 µg/mL (≈ 94.9 µM)

CCCCCCCCC1(C)SC(=O)C=C1OCC(=O)Nc1ccc2c(c1)OCO2 (stereo not shown)
IC50 [1]: 14.8 µg/mL (≈ 35.3 µM)
IC50 ([2]; OVCAR-3): 9.3 µg/mL (≈ 22.2 µM)
Emax at 0.098 µg/mL [3, 6]: 45%
FAO SC 150 [3]: Neg

CCCCCCCCC1(C)SC(=O)C=C1OCC(=O)Nc1ccc(Oc2ccc(Cl)cc2)cc1 (stereo not shown)
IC50 [1]: 6.3 µg/mL (≈ 12.5 µM)
IC50 ([2]; OVCAR-3): 5 µg/mL (≈ 9.96 µM)
Emax at 6.25 µg/mL [3, 6]: 109%
FAO SC 150 [3]: Neg
Weight Loss ([5]; day 4): 60 mg/kg: 3.1% (day 4)

CCCCCCCC[C@]1(C)SC(=O)C=C1OCC(=O)Nc1ccccc1OC(F)(F)F
IC50 [1]: 78.8 µg/mL (≈ 171 µM)
IC50 ([2]; OVCAR-3): > 80 µg/mL
Emax at 25 µg/mL ([3]; Homo sapiens, MCF7, at 25 μg/ml, read-out: FAO Max): 116%
FAO SC 150 [3]: Neg

CCCCCCCCC1(C)SC(=O)C=C1OCC(=O)Nc1ccc(C(F)(F)F)cc1 (stereo not shown)
IC50 [1]: 4.8 µg/mL (≈ 10.8 µM)
IC50 ([2]; OVCAR-3): 4 µg/mL (≈ 9.02 µM)
Emax at 6.25 µg/mL [3, 6]: 130%
FAO SC 150 [3]: Neg

CCCCCCCCC1(C)SC(=O)C=C1OCC(=O)Nc1ccccc1N1CCCCC1 (stereo not shown)
IC50 [1]: 13.1 µg/mL (≈ 28.6 µM)
IC50 ([2]; OVCAR-3): 15.5 µg/mL (≈ 33.8 µM)
Emax at 1.56 µg/mL [3, 6]: 119%
FAO SC 150 [3]: Neg

CCCCCCCCC1(C)SC(=O)C=C1OCC(=O)Nc1ccc(OC(F)(F)F)cc1 (stereo not shown)
IC50 [1]: 3.5 µg/mL (≈ 7.62 µM)
IC50 ([2]; OVCAR-3): 3.3 µg/mL (≈ 7.18 µM)
Weight Loss ([5]; day 1): 60 mg/kg: 2.2% (day 1)

CCCCCCCCC1(C)SC(=O)C=C1OCC(=O)Nc1cccc(OC(F)(F)F)c1 (stereo not shown)
IC50 [1]: 8 µg/mL (≈ 17.4 µM)
IC50 ([2]; OVCAR-3): 11.6 µg/mL (≈ 25.2 µM)
Emax at 1.56 µg/mL [3, 6]: 122%
FAO SC 150 [3]: Neg
solubility [4]: 40 µg/mL (≈ 87 µM)

CCCCCCCCC1(C)SC(=O)C=C1OCC(=O)Nc1ccc(SC)cc1 (stereo not shown)
IC50 [1]: 11.5 µg/mL (≈ 27.3 µM)
IC50 ([2]; OVCAR-3): 16.9 µg/mL (≈ 40.1 µM)
Emax at 6.25 µg/mL [3, 6]: 100%
FAO SC 150 [3]: Neg
solubility [4]: 40 µg/mL (≈ 94.9 µM)

CCCCCCCCC1(C)SC(=O)C=C1OCC(=O)Nc1ccc(OC)cc1 (stereo not shown)
IC50 [1]: 15.6 µg/mL (≈ 38.5 µM)
IC50 ([2]; OVCAR-3): 17.8 µg/mL (≈ 43.9 µM)
Emax at 0.098 µg/mL [3, 6]: 90%
FAO SC 150 [3]: Neg

CCCCCCCCC1(C)SC(=O)C=C1OCC(=O)Nc1ccc(Cl)cc1Cl (stereo not shown)
IC50 [1]: 13.1 µg/mL (≈ 29.5 µM)
IC50 ([2]; OVCAR-3, unit given as ml): 64.5 µg/mL (≈ 145 µM)
Emax at 1.56 µg/mL [3, 6]: 141%
FAO SC 150 [3]: Neg
solubility [4]: 40 µg/mL (≈ 90 µM)

CCCCCCCCOc1ccc(NC(=O)COC2=CC(=O)SC2(C)CCCCCCCC)cc1 (stereo not shown)
IC50 [1]: > 80 µg/mL
IC50 ([2]; OVCAR-3): 67 µg/mL (≈ 133 µM)
Emax at 0.098 µg/mL [3, 6]: 97%
FAO SC 150 [3]: Neg

CCCCCCCC[C@]1(C)SC(=O)C=C1OCC(=O)Nc1ccccc1C(F)(F)F
IC50 [1]: 15.6 µg/mL (≈ 35.2 µM)
IC50 ([2]; OVCAR-3): 24.1 µg/mL (≈ 54.3 µM)
Emax at 1.56 µg/mL [3, 6]: 105%
FAO SC 150 [3]: Neg
solubility [4]: 80 µg/mL (≈ 180 µM)

CCCCCCCCC1(C)SC(=O)C=C1OCC(=O)Nc1ccc(-c2cccs2)cc1 (stereo not shown)
IC50 [1]: > 80 µg/mL
IC50 ([2]; OVCAR-3): > 80 µg/mL
Emax at 100 µg/mL ([3]; Homo sapiens, MCF7, at 100 μg/ml, read-out: FAO Max): 168%
FAO SC 150 [3]: 61.9 µg/mL

CCCCCCCCC1(C)SC(=O)C=C1OCC(=O)Nc1ccc(Cl)cc1 (stereo not shown)
IC50 [1]: 5.9 ± 2.7 µg/mL (≈ 14.4 µM)
IC50 ([2]; OVCAR-3): 9.2 ± 5 µg/mL (≈ 22.4 µM)
Emax at 1.56 µg/mL [3, 6]: 106%
FAO SC 150 [3]: Neg
Solubility remark on FAS IC50 ([4]; FAS assay): Limited by Solubility
Weight Loss ([5]; day 1): 60 mg/kg: 0.2% (day 1)

CCCCCCCCC1(C)SC(=O)C=C1OCC(=O)Nc1ccc(Cl)cc1C(F)(F)F (stereo not shown)
IC50 [1]: 14 µg/mL (≈ 29.3 µM)
IC50 ([2]; OVCAR-3): 24 µg/mL (≈ 50.2 µM)
Emax at 1.56 µg/mL [3, 6]: 141%
FAO SC 150 [3]: 1.9 µg/mL

CCCCCCCCC1(C)SC(=O)C=C1OCC(=O)Nc1ccccc1 (stereo not shown)
IC50 [1]: 7.1 µg/mL (≈ 18.9 µM)
IC50 ([2]; OVCAR-3): 12.1 µg/mL (≈ 32.2 µM)
Emax at 0.098 µg/mL [3, 6]: 122%
FAO SC 150 [3]: Neg

CCCCCCCCC1(C)SC(=O)C=C1OCC(=O)Nc1cccc(C(F)(F)F)c1 (stereo not shown)
IC50 [1]: 7.6 µg/mL (≈ 17.1 µM)
IC50 ([2]; OVCAR-3): 11 µg/mL (≈ 24.8 µM)
Emax at 0.395 µg/mL ([3]; Homo sapiens, MCF7, at 0.395 μg/ml, read-out: FAO Max): 75%
FAO SC 150 [3]: Neg
solubility [4]: 80 µg/mL (≈ 180 µM)
